# Experimental data: PubChem BioAssay (NCI)
#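 In this assay, cells in 96-well plates receive the compound at five concentrations for 48 hours. Endpoints are linearly interpolated between the surrounding concentrations. GI50 is the concentration that inhibits growth by half. Definition used: TGI = concentration required for complete inhibition of growth.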
# Assays:
# Assay in all cases: NCI-60 cell line screen, 48 h
# A498 renal = tested on: A498 renal
# A549 NSCLC = tested on: A549 NSCLC
# DU-145 prostate = tested on: DU-145 prostate
# MDA-MB-231 breast = tested on: MDA-MB-231 breast
# NCI-H460 lung = tested on: NCI-H460 lung
# OVCAR-5 ovarian = tested on: OVCAR-5 ovarian
# SNB-75 CNS = tested on: SNB-75 CNS
# T-47D breast = tested on: T-47D breast
# UACC-257 melanoma = tested on: UACC-257 melanoma
# UO-31 renal = tested on: UO-31 renal
Structure (SMILES),TGI (A498 renal) [µM],TGI (A549 NSCLC) [µM],TGI (DU-145 prostate) [µM],TGI (MDA-MB-231 breast) [µM],TGI (NCI-H460 lung) [µM],TGI (OVCAR-5 ovarian) [µM],TGI (SNB-75 CNS) [µM],TGI (T-47D breast) [µM],TGI (UACC-257 melanoma) [µM],TGI (UO-31 renal) [µM],GI50 (A498 renal) [µM],GI50 (A549 NSCLC) [µM],GI50 (MDA-MB-231 breast) [µM],GI50 (NCI-H460 lung) [µM],GI50 (OVCAR-5 ovarian) [µM],GI50 (T-47D breast) [µM],GI50 (UACC-257 melanoma) [µM],GI50 (UO-31 renal) [µM],GI50 (DU-145 prostate) [µM],GI50 (SNB-75 CNS) [µM]
NC(CO)C(=O)NCC(=O)O (stereo not given),> 100,> 100,> 100,> 100,> 100,> 100,> 100,> 100,> 100,> 100,,,,,,,,,,
Cc1cn2c(/C=N/N=C(N)N)c(-c3ccsc3)nc2s1,43.3,34.7,,17.1,> 100,28.7,,7.86,35,> 100,28.3,17.1,3.94,5.29,15.1,2.7,18.7,25.2,,
COc1ccc(/C(=N/O)c2cc(OC)c(OC)c(OC)c2)c(OC)c1N,> 100,> 100,> 100,> 100,> 100,,> 100,> 100,,> 100,4.01,8.21,5.36,3.92,,26.2,,5.45,4.67,2.21
CCOP(=O)(CC(=O)C1=C(O)C(CCCCNC(=O)OC(C)(C)C)N(Cc2ccccc2)C1=O)OCC (stereo not given),> 100,> 100,,,> 100,> 100,> 100,,> 100,> 100,,,,,,,,,,
Oc1c(CNCCNCc2cc(Cl)cc(Cc3ccccc3)c2O)cc(Cl)cc1Cc1ccccc1,8.88,> 100,57.1,25,12.2,> 100,50.2,37.9,16.6,1.34,1.22,0.469,0.73,0.331,1.2,0.391,2.12,0.128,0.303,1.65
Oc1ccccc1C=Nc1ccccc1N=Cc1ccccc1O.[Cu+2],20.8,18.2,18.5,21.2,30,36,19.3,5.4,15.6,15.6,7.66,5.88,6.08,12.3,14.8,1.68,4.08,3,5.13,5.15
COc1cc2c(cc1OC)[C@@H]([C@H](O)c1ccccc1)NCC2,> 100,> 100,,,> 100,> 100,> 100,,> 100,> 100,,,,,,,,,,
N=C(N)SCc1ccc([N+](=O)[O-])cc1[N+](=O)[O-],66.6,66.4,9.95,36.6,32.7,40,50.5,11.4,17,14.3,29.9,21.6,12,12.7,23.1,2.59,4.44,3.21,2.25,19.6
COc1ccc2nccc(/C=C/c3ccnc4ccc(OC)cc34)c2c1,> 83.9,> 100,> 63.4,> 61.6,> 100,> 100,> 80.2,> 87.3,> 100,> 100,> 36.9,> 100,> 41.5,> 100,> 82.2,43.8,> 100,> 100,> 42.4,27.3
COc1cc2c(cc1O)C(c1cc(O)c(O)c(OC)c1)C(O)(C(=O)O)C(CO)C2O (stereo not given),> 100,> 100,> 100,> 100,> 100,> 100,> 100,> 100,> 100,> 100,,,,,,,,,,
NCCN1C(=O)c2ccccc2C1(O)c1ccc(Cl)cc1 (stereo not given),27.8,67.3,> 100,34.7,30.4,39.8,97.6,37.8,31.8,,,,,,,,,,,
CC12CCC(O)CC1=CCC1C2CCC2(C)C(c3cccnc3)=CCC12 (stereo not given),> 100,> 100,> 100,> 100,> 100,> 100,> 100,> 100,,> 100,> 100,> 100,> 100,> 100,> 100,> 100,,> 100,> 100,48.5
CC(OC(=O)N(N(CCCl)S(C)(=O)=O)S(C)(=O)=O)c1ccc([N+](=O)[O-])cc1 (stereo not given),43.3,> 100,> 100,96.8,> 100,> 100,> 100,> 100,> 100,> 100,1.7,> 58.3,> 51,> 78.7,> 100,> 69.2,76.1,> 100,24,> 89.1
CN(C)CCNc1nc2ccccc2c2occc12,81.6,> 100,> 100,77.6,> 100,88.4,> 100,> 100,68.2,> 100,48.5,44.7,23.7,31.7,37.2,> 100,28.9,26.1,32,11.8
Clc1ccc(C2=NOC3C4CCC(C4)C23)cc1 (stereo not given),> 100,> 100,,,> 100,> 100,> 100,,> 100,> 100,,,,,,,,,,
O=c1cc(O)c2c(O)cc(O)cc2o1,> 100,> 100,> 100,> 100,> 100,> 100,> 100,> 100,> 100,,,,,,,,,,,
Cc1ccc(S(=O)(=O)SCc2ccccc2)cc1,> 100,> 100,,,> 69.5,> 100,> 84.2,,> 94.2,> 100,,,,,,,,,,
Nc1nc(-c2cc(-c3cccc4ccccc34)nc(N)n2)cc(-c2cccc3ccccc23)n1,> 100,> 100,> 100,> 100,> 100,> 100,,> 100,> 100,> 100,,,,,,,,,,
CN1C(=O)C(=CN(C)c2ccccc2)C(=O)N(C)C1=O,> 100,> 100,,,> 100,> 100,> 100,,> 100,> 100,,,,,,,,,,

Structure (SMILES),TGI (A498 renal) [µM],TGI (A549 NSCLC) [µM],TGI (DU-145 prostate) [µM],TGI (MDA-MB-231 breast) [µM],TGI (NCI-H460 lung) [µM],TGI (OVCAR-5 ovarian) [µM],TGI (SNB-75 CNS) [µM],TGI (T-47D breast) [µM],TGI (UACC-257 melanoma) [µM],TGI (UO-31 renal) [µM],GI50 (A498 renal) [µM],GI50 (A549 NSCLC) [µM],GI50 (MDA-MB-231 breast) [µM],GI50 (NCI-H460 lung) [µM],GI50 (OVCAR-5 ovarian) [µM],GI50 (T-47D breast) [µM],GI50 (UACC-257 melanoma) [µM],GI50 (UO-31 renal) [µM],GI50 (DU-145 prostate) [µM],GI50 (SNB-75 CNS) [µM]
COc1ccc2c(c1)CCN1C3=C(CCC3)C(=O)C[C@@H]21,> 100,> 100,,,> 100,> 100,> 100,,> 100,> 100,,,,,,,,,,
O=C(Sc1sc(=S)sc1SC(=O)c1ccccc1)c1ccccc1,78,70.6,,,,> 100,78.3,,> 100,,,,,,,,,,,
Cc1cc(NS(=O)(=O)c2ccc(Nc3c4ccccc4nc4c(C(=O)Nc5ccc(S(=O)(=O)N=C(N)N)cc5)ccc(Cl)c34)cc2)no1,> 100,> 100,,,> 100,> 100,73.2,,> 100,> 100,,,,,,,,,,
CCCCN1CCN(c2ccc3nc(-c4ccc5nc(-c6ccc(OCC)c(OCC)c6)[nH]c5c4)[nH]c3c2)CC1,2.47,,2.21,3.28,1.86,3.4,2.01,7.88,10.5,5.8,1.18,,1.69,0.533,1.9,1.36,1.21,2,1,0.65
COc1ccc(C#CC2=C(c3cc(OC)c(OC)c(OC)c3)C(=O)OC2)cc1,30.1,38.8,,> 50,> 50,> 50,> 50,,> 50,> 50,8.21,14.3,32,6.65,> 50,,13,18.9,,1.33
C#C/C=C/CC1OC(C(Br)CC)CC(Br)C2CC1O2 (stereo not given),> 100,> 100,> 100,> 100,> 100,> 100,> 100,> 100,> 100,,,,,,,,,,,
Cc1cc(NS(=O)(=O)c2ccc(NC(=O)COC(=O)c3cccc4c(=O)c5ccccc5[nH]c34)cc2)no1,> 100,> 100,,,> 100,> 100,> 100,,> 100,> 100,,,,,,,,,,
Brc1ccc(C2SCc3nc4ccccc4n32)cc1 (stereo not given),,> 100,,,27.3,25.2,0.745,,,32,,,,,,,,,,
O=C(COc1ccc(-c2nc3cc(Cl)c(Cl)cc3[nH]2)cc1)N=Nc1c(O)[nH]c2ccccc12,18.6,,> 100,3.43,,> 100,3.68,,,> 100,3.62,,1.09,,> 100,,,> 100,1.51,1.61
O=C1CCC2(c3ccccc3)Nc3ccc(Cl)cc3N12 (stereo not given),> 100,> 100,,,> 100,> 100,> 100,,> 100,> 100,,,,,,,,,,
O=S(=O)(NCCO)c1cc[c]([Sb](=[O])([OH])[OH])cc1,> 100,> 100,> 100,> 100,> 100,> 100,,> 100,> 100,> 100,> 100,> 100,> 100,> 100,> 100,> 100,> 100,> 100,> 100,
CCOC(=O)c1nc2cc(C(F)(F)F)ccc2[n+]([O-])c1C,> 100,> 100,> 100,> 100,> 100,> 100,> 100,,> 100,> 100,> 100,> 100,> 100,> 100,> 100,,> 100,> 100,> 100,> 100
O=C(NC(=O)c1cc2cc(Br)cc(Br)c2oc1=O)Oc1ccccc1,> 100,> 100,,,> 100,> 100,33.6,,> 100,> 100,,,,,,,,,,
Cc1ccc2c(CC(=O)O)cc(=O)oc2c1,> 100,> 100,,,> 100,> 100,> 100,,,,,,,,,,,,,
CCN(CC)CCC(=O)/C=C/c1ccc(C)cc1,24,34.5,,,38.3,32.6,30.9,,30.6,29.8,,,,,,,,,,
Cc1cc(S(N)(=O)=O)c(S/C(=N\Nc2ccc([N+](=O)[O-])cc2)c2ccc3ccccc3c2)cc1Cl,,> 100,43,29.6,> 100,27.9,> 100,83.7,78.3,> 100,,54.1,13.4,18.5,14.8,,30.1,56,13.2,56.7
C[n+]1c(/C=C/c2ccc(/C=N/NC(=O)c3ccc(C(=O)N/N=C/c4ccc(/C=C/c5cn6ccccc6[n+]5C)cc4)cc3)cc2)cn2ccccc21,,> 100,> 100,> 100,> 100,> 100,> 100,> 100,> 100,> 100,,,,,,,,,,
COc1cc2ccc(CC(N)=O)cc2cc1OC,,> 100,,,,> 100,> 100,,> 100,> 100,,,,,,,,,,
CC(=O)NC1=C(Sc2ccc(Cl)cc2)C(=O)c2ccccc2C1=O,16.4,> 100,30.5,10.2,23.2,23.9,,4.95,17.3,4.13,,,,,,,,,,
